Reference: US4241069A, “3-Methylene flavanones and 3-methylene chromanones” (Miles Laboratories, Inc., priority 1979, dated 1980)
In brackets after ≈: the same amount, converted by molar mass.

Assays:
S. aureus NRRL B2747 [1] = assay: MIC, agar incorporation method; type: cell-based, Staphylococcus aureus; conditions: Staphylococcus aureus, NRRLB2747, 32° C., 24 hours, read-out: Minimal Inhibitory Concentration
Description: (§1) The compounds of the present invention were tested for their ability to inhibit the growth of microorganisms by in vitro tests. Generally the in vitro tests involve growing representative microorganisms under conditions favorable to such growth and measuring the effectiveness of one or more compounds in inhibiting or destroying the growth of the microorganisms. The microorganisms used include representative bacteria, fungi and yeasts.
(§2) A representative selection of the test microorganisms were cultured in a nutrient broth, such as, for example, Eugon, commercially available from Difco Laboratories, Detroit, Michigan. Bacteria and Candida species were cultured for 24 hours at 32°-37° C. and fungi were cultured for approximately one week at 32° C. Inocula were prepared by suspending the growth or spores from a slant culture in sufficient sterile normal (0.9 percent) saline or Eugon broth, to yield cell or spore concentrations of 1,000,000 cells per milliliter. Anaerobic bacteria were cultured for 48-72 hours at 32°-37° C. in a thioglycollate containing medium, for example, Fluid Thioglycollate medium or NIH thioglycollate broth, commercially available from Difco Laboratories.
(§3) The compounds of the present invention were tested for activity against bacteria, yeasts and fungi by the agar incorporation method described below. MA 1347, 3-(dimethylaminomethyl)flavanone (disclosed in U.S. Pat. No. 3,753,985) was used as a comparative standard along with controls for each solvent system used.
(§4) A series of agar plates containing two-fold dilutions of each compound to be tested, ranging in concentration from 100 to 3.1 mcg/ml of agar medium was prepared. Aliquots of each concentration (100, 50, 25, 12.5, 6.2, and 3.1) prepared in N,N-dimethylformamide or 50 percent aqueous DMF were added to liquid Eugon agar at 48° C. (one part test solution to 100 parts agar). In some cases, tests with further dilutions to 0.125 mcg/ml were conducted. The agar medium, containing the 3-methylene flavanone or chromanone compound to be tested, was then dispensed into petri dishes and allowed to solidify. The solidified plates were kept overnight at room temperatures to dry the surface of the agar.
(§5) The agar plates were then inoculated with a drop of the standardized cell or spore suspension. Inoculated plates were incubated at 32° C. The inhibition end-point or minimum inhibitory concentration (MIC) shown in Table D represent the lowest concentration of test compound which inhibited the growth of the microorganism. Visual determination of growth inhibition was used. Bacteria and yeast end-points were determined after 24 hours incubation; molds, dermatophytes and anaerobes after 48-72 hours incubation. MIC values shown as ranges represent the extremes found in repeat assays. Virtually all such values were written plus or minus one dilution, the accepted variation of a two-fold dilution assay.

[2] = system: Propionobacterium acnes ATCC 6919; assay: MIC, agar incorporation method, anaerobic; type: cell-based; conditions: 48 hours at 35° C., GasPak Anaerobic Jar, read-out: Minimal Inhibitory Concentration
Description: as §1, §2, §3, §4, §5
(§6) *Anaerobic: 48 hours incubation at 35° C. GasPak Anaerobic Jar

S. aureus NRRL B2747 [3] = assay: MIC, agar incorporation method, anaerobic; type: cell-based; conditions: Staphylococcus aureus, NRRLB2747, 48 hours at 35° C., GasPak Anaerobic Jar, read-out: Minimal Inhibitory Concentration
Description: as §1, §2, §3, §4, §5, §6

[4] = system: Bacteriodides fragilis ATCC 8482; assay: MIC, agar incorporation method, anaerobic; type: cell-based; conditions: 48 hours at 35° C., GasPak Anaerobic Jar, read-out: Minimal Inhibitory Concentration
Description: as §1, §2, §3, §4, §5, §6

[5] = system: Clostridium sporogenes ATCC 11437; assay: MIC, agar incorporation method, anaerobic; type: cell-based; conditions: ATCC11437, 48 hours at 35° C., GasPak Anaerobic Jar, read-out: Minimal Inhibitory Concentration
Description: as §1, §2, §3, §4, §5, §6

T. tonsurans ATCC 10217 = assay: MIC, agar incorporation method; type: cell-based; conditions: Trichophyton tonsurans, ATCC10217; 32° C., 48-72 hours; read-out: Minimal Inhibitory Concentration
Description: as §1, §2, §3, §4, §5

C. albicans NRRL Y-477 = assay: MIC, agar incorporation method; type: cell-based; conditions: Candida albicans, NRRLY477, 32° C., 24 hours, read-out: Minimal Inhibitory Concentration
Description: as §1, §2, §3, §4, §5

[6] = system: Pseudomonas aeruginosa ATCC 14502; assay: MIC, agar incorporation method; type: cell-based; conditions: ATCC14502, 32° C., 24 hours, read-out: Minimal Inhibitory Concentration
Description: as §1, §2, §3, §4, §5

[7] = system: Microsporum gypseum ATCC 14683; assay: MIC, agar incorporation method; type: cell-based; conditions: Nannizzia gypsea, ATCC14683, 32° C., 48-72 hours; read-out: Minimal Inhibitory Concentration
Description: as §1, §2, §3, §4, §5

C. guillermondii VM 42 = assay: MIC, agar incorporation method; type: cell-based; conditions: 32° C., 24 hours; read-out: Minimal Inhibitory Concentration
Description: as §1, §2, §3, §4, §5

[8] = system: Staphylococcus aureus ATCC 6538; assay: MIC, agar incorporation method; type: cell-based; conditions: Staphylococcus aureus, ATCC6538; S. aureus ATCC 6538; 32° C., 24 hours; read-out: Minimal Inhibitory Concentration
Description: as §1, §2, §3, §4, §5

[9] = system: Trichophyton mentagrophytes ATCC 4807; assay: MIC, agar incorporation method; type: cell-based; conditions: ATCC4807, 32° C., 48-72 hours, read-out: Minimal Inhibitory Concentration
Description: as §1, §2, §3, §4, §5

T. mentagrophytes TM-2 = assay: MIC, agar incorporation method; type: cell-based; conditions: Trichophyton mentagrophytes, TM2, 32° C., 48-72 hours, read-out: Minimal Inhibitory Concentration
Description: as §1, §2, §3, §4, §5

[10] = system: Streptococcus faecalis ATCC 10541; assay: MIC, agar incorporation method; type: cell-based; conditions: Enterococcus faecalis, ATCC10541; 32° C., 24 hours; read-out: Minimal Inhibitory Concentration
Description: as §1, §2, §3, §4, §5

[11] = system: Escherichia coli ATCC 8739; assay: MIC, agar incorporation method; type: cell-based; conditions: ATCC8739, 32° C., 24 hours, read-out: Minimal Inhibitory Concentration
Description: as §1, §2, §3, §4, §5

[12] = system: Candida albicans ATCC 10231; assay: MIC, agar incorporation method; type: cell-based; conditions: ATCC10231, C. albicans ATCC 10231, 32° C., 24 hours, read-out: Minimal Inhibitory Concentration
Description: as §1, §2, §3, §4, §5

C. tropicalis NRRL Y1410 = assay: MIC, agar incorporation method; type: cell-based; conditions: Candida tropicalis, NRRLY1410; 32° C., 24 hours; read-out: Minimal Inhibitory Concentration
Description: as §1, §2, §3, §4, §5

C. krusei VM 29B = assay: MIC, agar incorporation method; type: cell-based; conditions: Pichia kudriavzevii, VM29B; 32° C., 24 hours; read-out: Minimal Inhibitory Concentration
Description: as §1, §2, §3, §4, §5

A. fumigatus NRRL 163 = assay: MIC, agar incorporation method; type: cell-based; conditions: Aspergillus fumigatus, NRRL163, NRRL 163; 32° C., 48-72 hours; read-out: Minimal Inhibitory Concentration
Description: as §1, §2, §3, §4, §5

T. mentagrophytes CDC = assay: MIC, agar incorporation method; type: cell-based; conditions: Trichophyton mentagrophytes, 32° C., 48-72 hours, read-out: Minimal Inhibitory Concentration
Description: as §1, §2, §3, §4, §5

[13] = system: Clostridium acetobutylicum ATCC 824; assay: MIC, agar incorporation method, anaerobic; type: cell-based; conditions: ATCC824, 48 h, 48 hours at 35° C., GasPak Anaerobic Jar, read-out: Minimal Inhibitory Concentration
Description: as §1, §2, §3, §4, §5, §6

[14] = system: Aspergillus niger ATCC 16404; assay: MIC, agar incorporation method; type: cell-based; conditions: ATCC16404, 32° C., 48-72 hours, read-out: Minimal Inhibitory Concentration
Description: as §1, §2, §3, §4, §5

[15] = system: Sarcina subflava ATCC 7468; assay: MIC, agar incorporation method; type: cell-based; conditions: ATCC7468, 32° C., 24 hours, read-out: Minimal Inhibitory Concentration
Description: as §1, §2, §3, §4, §5

A. fumigatus NRRL 165 = assay: MIC, agar incorporation method; type: cell-based; conditions: Aspergillus fumigatus, NRRL165, 32° C., 48-72 hours, read-out: Minimal Inhibitory Concentration
Description: as §1, §2, §3, §4, §5

[16] = system: Proteus vulgaris NRRL B123; assay: MIC, agar incorporation method; type: cell-based; conditions: NRRLB123, 32° C., 24 hours, read-out: Minimal Inhibitory Concentration
Description: as §1, §2, §3, §4, §5

T. rubrum ATCC 10218 = assay: MIC, agar incorporation method; type: cell-based; conditions: Trichophyton rubrum, ATCC10218; 32° C., 48-72 hours; read-out: Minimal Inhibitory Concentration
Description: as §1, §2, §3, §4, §5

MIC [14] [µg/mL]	MIC (T. rubrum ATCC 10218) [µg/mL]	Compound	MIC (S. aureus NRRL B2747 [1]) [µg/mL]	MIC [2] [µg/mL]	MIC (S. aureus NRRL B2747 [3]) [µg/mL]	MIC [4] [µg/mL]	MIC (C. albicans NRRL Y-477) [µg/mL]	MIC [6] [µg/mL]	MIC [7] [µg/mL]	MIC (C. guillermondii VM 42) [µg/mL]	MIC [8] [µg/mL]	MIC [9] [µg/mL]	MIC (T. mentagrophytes TM-2) [µg/mL]	MIC [10] [µg/mL]	MIC [11] [µg/mL]	MIC [12] [µg/mL]	MIC (C. tropicalis NRRL Y1410) [µg/mL]	MIC (C. krusei VM 29B) [µg/mL]	MIC (A. fumigatus NRRL 163) [µg/mL]	MIC (T. mentagrophytes CDC) [µg/mL]	also measured
		C=C1C(=O)c2ccccc2OC1c1ccccc1 (stereo not shown) [Ex. 1, 3-methylene flavanone]	12.5 (≈ 52.9 µM)	12.5 (≈ 52.9 µM)	25 (≈ 106 µM)	1.56 (≈ 6.6 µM)	50 (≈ 212 µM)	> 100	6.2 to 12.5 (≈ 26.2 to 52.9 µM)	100 (≈ 423 µM)	6.2 (≈ 26.2 µM)	12.5 (≈ 52.9 µM)	12.5 (≈ 52.9 µM)	100 (≈ 423 µM)	> 100	50 (≈ 212 µM)	100 (≈ 423 µM)	50 (≈ 212 µM)	6.2 (≈ 26.2 µM)	12.5 (≈ 52.9 µM)	MIC [5]: 12.5 µg/mL (≈ 52.9 µM); MIC (T. tonsurans ATCC 10217): 6.2 µg/mL (≈ 26.2 µM)
50 (≈ 200 µM)	≤ 3.1	C=C1C(=O)c2ccccc2OC1c1ccc(C)cc1 (stereo not shown) [Ex. 13, 4'-methyl-3-methylene flavanone]	6.2 (≈ 24.8 µM)	≤ 100			25 (≈ 99.9 µM)	> 100	6.2 (≈ 24.8 µM)	50 (≈ 200 µM)	6.2 (≈ 24.8 µM)	6.2 (≈ 24.8 µM)	6.2 (≈ 24.8 µM)	50 (≈ 200 µM)	> 100	25 (≈ 99.9 µM)	50 (≈ 200 µM)	25 (≈ 99.9 µM)	12.5 (≈ 49.9 µM)	6.2 (≈ 24.8 µM)	MIC [13]: ≤ 100 µg/mL; MIC [15]: 12.5 µg/mL (≈ 49.9 µM); MIC (A. fumigatus NRRL 165): 50 µg/mL (≈ 200 µM); MIC [16]: > 100 µg/mL
> 100	6.2 (≈ 21.7 µM)	C=C1C(=O)c2ccccc2OC1c1ccc2ccccc2c1 (stereo not shown) [compound 24, 3-methylene-2-(2-naphthyl) chromanone]	6.2 (≈ 21.7 µM)				100 (≈ 349 µM)	> 100	12.5 (≈ 43.7 µM)	> 100	≤ 3.1	12.5 (≈ 43.7 µM)	12.5 (≈ 43.7 µM)	50 (≈ 175 µM)	> 100	> 100	> 100	25 (≈ 87.3 µM)		25 (≈ 87.3 µM)	MIC (A. fumigatus NRRL 165): > 100 µg/mL

Compound	MIC [14] [µg/mL]	MIC (T. rubrum ATCC 10218) [µg/mL]	MIC (S. aureus NRRL B2747 [1]) [µg/mL]	MIC [2] [µg/mL]	MIC (S. aureus NRRL B2747 [3]) [µg/mL]	MIC [4] [µg/mL]	MIC (C. albicans NRRL Y-477) [µg/mL]	MIC [6] [µg/mL]	MIC [7] [µg/mL]	MIC (C. guillermondii VM 42) [µg/mL]	MIC [8] [µg/mL]	MIC [9] [µg/mL]	MIC (T. mentagrophytes TM-2) [µg/mL]	MIC [10] [µg/mL]	MIC [11] [µg/mL]	MIC [12] [µg/mL]	MIC (C. tropicalis NRRL Y1410) [µg/mL]	MIC (C. krusei VM 29B) [µg/mL]	MIC (A. fumigatus NRRL 163) [µg/mL]	MIC (T. mentagrophytes CDC) [µg/mL]	also measured
C=C1C(=O)c2ccccc2OC1c1ccc(Cl)cc1Cl (stereo not shown) [Ex. 4, 2',4'-dichloro-3-methylene flavanone]	100 (≈ 328 µM)	12.5 (≈ 41 µM)	1.56 (≈ 5.11 µM)	3.1 (≈ 10.2 µM)	6.2 (≈ 20.3 µM)	3.1 (≈ 10.2 µM)	25 (≈ 81.9 µM)	> 100	6.2 to 12.5 (≈ 20.3 to 41 µM)	50 (≈ 164 µM)	1.56 (≈ 5.11 µM)	12.5 (≈ 41 µM)	12.5 to 25 (≈ 41 to 81.9 µM)	25 to 50 (≈ 81.9 to 164 µM)	> 100	25 (≈ 81.9 µM)	50 (≈ 164 µM)	25 to 50 (≈ 81.9 to 164 µM)	50 (≈ 164 µM)	12.5 to 25 (≈ 41 to 81.9 µM)	MIC [5]: ≤ 0.78 µg/mL; MIC (T. tonsurans ATCC 10217): 6.2 µg/mL (≈ 20.3 µM); MIC [15]: 3.1 µg/mL (≈ 10.2 µM)
